Data: US20110218188A1, “SUBSTITUTED (PYRIDYL)-AZINYLAMINE DERIVATIVES AS FUNGICIDES” (priority 2008, published 2011)

Assay: Measurement of logP values by HPLC on reversed phase columns (EEC directive 79/831 Annex V.A8)
Assay type: physicochemical
Details: for logP: pH 2.7; for logP [b]: pH 2.3

| logP | logP [b] | Compound |
| --- | --- | --- |
| 2.3 | – | O=C(c1cc(-c2ncnc(Nc3cccc(Cl)c3)n2)ccn1)N1CCCC(CO)C1 (centres unmarked) [Example B145] |
| 3.87 | – | CC(C)CCN(C)C(=O)c1cc(-c2ncnc(Nc3cccc(Cl)c3)n2)ccn1 [Example B146] |
| 3.83 | – | CC1(C)CCCN(C(=O)c2cc(-c3ncnc(Nc4cccc(Cl)c4)n3)ccn2)C1 [Example B147] |
| 3.67 | – | CC(C)=CCN(C)C(=O)c1cc(-c2ncnc(Nc3cccc(Cl)c3)n2)ccn1 [Example B148] |
| 3.51 | – | CN(C(=O)c1cc(-c2ncnc(Nc3cccc(Cl)c3)n2)ccn1)C1CCCC1 [Example B149] |
| 2.4 | – | CN(C)C(=O)c1cc(-c2ncnc(Nc3cccc(Cl)c3)n2)ccn1 [Example B150] |
| 3.23 | – | CC1CCCN1C(=O)c1cc(-c2ncnc(Nc3cccc(Cl)c3)n2)ccn1 (centres unmarked) [Example B152] |
| 3.11 | – | O=C(c1cc(-c2ncnc(Nc3cccc(Cl)c3)n2)ccn1)N1CC=CCC1 [Example B153] |
| 3.96 | – | CC1CC(C)CN(C(=O)c2cc(-c3ncnc(Nc4cccc(Cl)c4)n3)ccn2)C1 (centres unmarked) [Example B155] |
| 3.67 | – | C=C(C)CN(CC)C(=O)c1cc(-c2ncnc(Nc3cccc(Cl)c3)n2)ccn1 [Example B156] |
| 2.69 | – | CCN(C)C(=O)c1cc(-c2ncnc(Nc3cccc(Cl)c3)n2)ccn1 [Example B157] |
| 2.96 | – | CC(C)N(C)C(=O)c1cc(-c2ncnc(Nc3cccc(Cl)c3)n2)ccn1 [Example B158] |
| 3.89 | – | CCCCCN(C)C(=O)c1cc(-c2ncnc(Nc3cccc(Cl)c3)n2)ccn1 [Example B161] |
| 2.04 | – | O=CN1CCN(C(=O)c2cc(-c3ncnc(Nc4cccc(Cl)c4)n3)ccn2)CC1 [Example B163] |
| 2.25 | – | CCN(CCO)C(=O)c1cc(-c2ncnc(Nc3cccc(Cl)c3)n2)ccn1 [Example B164] |
| 2.48 | – | O=C(c1cc(-c2ncnc(Nc3cccc(Cl)c3)n2)ccn1)N1CCCCC1CO (centres unmarked) [Example B165] |
| 2.66 | – | CCN(CC(C)(C)O)C(=O)c1cc(-c2ncnc(Nc3cccc(Cl)c3)n2)ccn1 [Example B166] |
| 3.09 | – | CCN(CC1CCCO1)C(=O)c1cc(-c2ncnc(Nc3cccc(Cl)c3)n2)ccn1 (centres unmarked) [Example B167] |
| 4.13 | – | CCCN(C(=O)c1cc(-c2ncnc(Nc3cccc(Cl)c3)n2)ccn1)C(C)CC (centres unmarked) [Example B171] |
| 2.04 | – | O=C(c1cc(-c2ncnc(Nc3cccc(Cl)c3)n2)ccn1)N1CCC(O)CC1 [Example B173] |
| – | 2.76[b] | COC1CCCN(C(=O)c2cc(-c3ncnc(Nc4cccc(Cl)c4)n3)ccn2)C1 (centres unmarked) [Example B179] |
| 2.45 | – | CC(C)N(CCO)C(=O)c1cc(-c2ncnc(Nc3cccc(Cl)c3)n2)ccn1 [Example B180] |
| – | 2.51[b] | CCCN(CCO)C(=O)c1cc(-c2ncnc(Nc3cccc(Cl)c3)n2)ccn1 [Example B181] |
| 2.4 | – | O=C(NCCCO)c1cc(-c2ncnc(Nc3cccc(Cl)c3)n2)ccn1 [Example B183] |
| 1.5 | – | CN1CCN(C(=O)c2cc(-c3ncnc(Nc4cccc(Cl)c4)n3)ccn2)CC1 [Example B184] |

| Compound | logP | logP [b] |
| --- | --- | --- |
| CC(C)CN(C)C(=O)c1cc(-c2ncnc(Nc3cccc(Cl)c3)n2)ccn1 [Example B151] | 3.42 | – |
| CCCN(CC1CC1)C(=O)c1cc(-c2ncnc(Nc3cccc(Cl)c3)n2)ccn1 [Example B159] | 3.94 | – |
| CN(CC1CCCO1)C(=O)c1cc(-c2ncnc(Nc3cccc(Cl)c3)n2)ccn1 (centres unmarked) [Example B160] | 2.76 | – |
| CCCCN(CC)C(=O)c1cc(-c2ncnc(Nc3cccc(Cl)c3)n2)ccn1 [Example B162] | 3.87 | – |
| COC1CCN(C(=O)c2cc(-c3ncnc(Nc4cccc(Cl)c4)n3)ccn2)CC1 [Example B169] | 2.68 | – |
| N#CC1CCN(C(=O)c2cc(-c3ncnc(Nc4cccc(Cl)c4)n3)ccn2)CC1 [Example B170] | 2.59 | – |
| COCCN(C)C(=O)c1cc(-c2ncnc(Nc3cccc(Cl)c3)n2)ccn1 [Example B172] | 2.57 | – |
